{
  "source": "patent US11484601B2",
  "about": "“Targeting M2-like tumor-associated macrophages by using melittin-based proapoptotic peptide” (TWI[…]., priority 2018, dated 2022)",
  "key": {"[1]": {"tested_on": "mitochondria of M2-type macrophage", "assay": "Confocal localisation of TMR-conjugated peptides in mitochondria", "assay_type": "cell-based, mouse", "settings": "1 μM TMR-conjugated peptide, 2 hours; for presence in mitochondria by image measurement: MitoTracker green", "description": "In order to identify the invasion and location of MEL-dKLA into the mitochondria of M2-type macrophage, those were identified using fluorescence microscopy via staining. Further, PASCAL 5 LSM image measurement was performed for quantitative analysis.\nMore specifically, RAW264.7 macrophage was differentiated into M2 which in turn was incubated together with 1 μM TMR-conjugated dKLA, MEL or MEL-dKLA for 2 hours. The peptides that were not conjugated thereto were washed off, and then the cells were stained with 250 nM MitoTracker green (Invitrogen) for 30 minutes. After the staining, the cells were stained for 10 minutes in PBS to which 4 μg/mL 4′6-diamidino-2-phenylidole (DAPI; Sigma-Aldrich, MO, USA) was added. The stained cells were measured with a laser scanning confocal microscope (Carl Zeiss, Germany). The location of MEL-dKLA in the mitochondria was measured with an LSMS image meter (Carl Zeiss)."}, "[2]": {"tested_on": "RAW264.7 cells differentiated into M2 cells", "assay": "XF24 Extracellular Flux metabolic measurement (OCR, ECAR)", "assay_type": "cell-based, mouse", "settings": "1 μM peptide, compared to PBS-treated group", "description": "[…] assay was performed to measure the effect of MEL-dKLA on the metabolic action of mitochondria.\nMore specifically, the metabolic action was measured using an XF24 Extracellular Flux analyzer (Agilent, CA, USA). RAW264.7 cells were differentiated into M2 cells which were inoculated into XF-24 plates (3×10^4 cells/well). The next day, in order to minimize the potential stress due to changes in the situation, 1 μM of each peptide was applied thereto. Then, the cells were incubated in a 37° C. incubator under 5% CO2 condition. […] Then, the oxygen consumption rate (OCR) and the extracellular acidification rate (ECAR) were measured in real time.\nFurther, OCR was measured at a time point corresponding to 12 times. The basal state was measured at a time point corresponding to 3 times. Then, ATP-connected respiration after oligomycin addition was measured at a time point corresponding to further 3 times. Then, the maximum respiration after FCCP addition was measured at a time point corresponding to further 3 times. Then, a point at which non-mitochondrial respiration occurred after addition of Rot/AA was measured at a time point corresponding to remaining 3 times. Thus, the mitochondria respiration ability was measured. ECAR indicating the glycolysis rate was measured at the same time points."}, "[3]": {"tested_on": "LLC tumor cells", "assay": "LLC lung cancer tumor model in C57BL/6 mice", "assay_type": "in vivo, mouse", "settings": "175 nmol/kg intraperitoneally", "description": "More specifically, C57BL/6 wild-type mice were purchased from DBL (Korea). LLC tumor cells were mixed with Matrigel (Corning, NY, USA) and then the mixture was injected into the right flank of mice (5×10^4 cells/mouse). Five days after tumor cell injection, the recombinant dKLA, MEL, and MEL-dKLA peptides were injected intraperitoneally thereto for 3 days for a total of three times (175 nmol/kg dosage/weight per each time). All tumor tissues were harvested 12 days after the injection. The animal experiment was approved by the Animal Management Committee of Kyunghee University [KHUASP(SE)-17-087]. The animals were managed via autonomous feeding of water and food under a 12-hour light/dark cycle environment without pathogens."}, "[4]": {"tested_on": "4T1 breast cancer cells", "assay": "4T1 breast cancer model in BALB/c mice, lung nodules and H&E", "assay_type": "in vivo, mouse", "settings": "175 nmol/kg at 3-day intervals; for nodules on the lung surface: 15 days after cancer cell injection", "description": "More specifically, 4T1 breast cancer cells (1×10^5) were injected into BALB/c mice. Then, 3 days later, 175 nmol/kg of each of PBS, dKLA, MEL and MEL-dKLA was injected into each group at 3-day intervals. To investigate the level of metastasis and nodules on the lung surface, on 15 days after cancer cell injection, mice were sacrificed and the nodules on the lung surface were identified.\nMore specifically, for H&E staining, we immersed the tissue in a hematoxylin solution, stained the cell nucleus with a purple color. Then, we removed a remaining-stained portion except for the nucleus with an acidic alcohol solution, and immersed the tissue again in an eosin-added solution to stain the cytoplasm with a pink color. Then, the structure of the cell was observed."}, "[5]": {"tested_on": "M2-type tumor-associated macrophage (CD45+F4/80+CD206+)", "assay": "Flow cytometry of tumor tissue, M2-type TAM", "assay_type": "in vivo, mouse", "description": "More specifically, the tumor cells were thinly crushed and separated from each other in DMEM to which DNasel (1 U/mL) and collagenase D (1 mg/mL) were added. The tissue was gently agitated for 1 hour at 37° C., and separated using a […] nylon mesh filter. Red blood cells were dissolved in Phrmlyse buffer (BE bioscience). Individual cells passed through a 40-μm nylon mesh filter and then were stained with following antibodies: CD4+ T cell (CD45+CD4+CD8−), CD8+ T cell (CD45+CD4−CD8+), Foxp3+ regulatory T cell (CD4+CD25+Foxp3+), dendritic cell (CD45+CD11b+CD11c+), and M1 (CD45+F4/80+CD86+) or M2 macrophage (CD45+F4/80+CD206+): anti-CD45-FITC, anti-CD4-phycoerythrin (PE), anti-CD8-allophycocyanin (APC), anti-CD4-FITC, anti-CD25-PE, anti-Foxp3-Alexa Fluor647, anti-CD11b-APC, anti-CD11c-APCcy7, anti-Grl-PEcy7, anti-CD86-PEcy7, and anti-CD206-APC antibodies. Annexin-V was previously treated to measure the cell percentage of macrophages."}},
  "data": [
    {"compound": "CC[C@H](C)[C@H](NC(=O)CN)C(=O)NCC(=O)N[C@@H](C)C(=O)N[C@H](C(=O)N[C@@H](CC(C)C)C(=O)N[C@@H](CCCCN)C(=O)N[C@H](C(=O)N[C@@H](CC(C)C)C(=O)N[C@H](C(=O)N[C@H](C(=O)NCC(=O)N[C@@H](CC(C)C)C(=O)N1CCC[C@H]1C(=O)N[C@@H](C)C(=O)N[C@@H](CC(C)C)C(=O)N[C@H](C(=O)N[C@@H](CO)C(=O)N[C@@H](Cc1c[nH]c2ccccc12)C(=O)N[C@H](C(=O)N[C@@H](CCCCN)C(=O)N[C@@H](CCCNC(=N)N)C(=O)N[C@@H](CCCCN)C(=O)N[C@@H](CCCNC(=N)N)C(=O)N[C@@H](CCC(N)=O)C(=O)N[C@@H](CCC(N)=O)C(N)=O)[C@@H](C)CC)[C@@H](C)CC)[C@@H](C)O)[C@@H](C)O)C(C)C)C(C)C", "note": "[MEL]", "values": [
      {"measurement": "correlation with mitochondria", "setting": "[1]", "result": "did not have any association with mitochondria"},
      {"measurement": "presence in mitochondria by image measurement", "setting": "[1]", "result": "could not be identified therein"},
      {"measurement": "basal respiration (baseline OCR)", "setting": "[2]", "result": "no change in baseline OCR"},
      {"measurement": "tumor size", "setting": "[3]", "result": "significantly reduced"},
      {"measurement": "metastasis to the lung by H&E staining", "setting": "[4]", "result": "relatively smaller metastasis occurred"},
      {"measurement": "nodules on the lung surface", "setting": "[4]", "result": "no reduction thereof was observed"},
      {"measurement": "number of nodules", "setting": "[4]; lungs", "result": "no significant decrease"},
      {"measurement": "M2-type TAM cells compared to the PBS-treated group", "setting": "[5]", "result": "decreased by half"},
      {"measurement": "proportion of M2-type tumor-associated F4/80+ CD206+ TAM in CD45+ leukocytes", "setting": "[5]", "result": "about 10%"}
    ]},
    {"compound": "d[KLAKLAKKLAKLAK] (D-amino acids) [dKLA, pro-apoptotic peptide KLA, used as control]", "values": [
      {"measurement": "correlation with mitochondria", "setting": "[1]", "result": "did not have any association with mitochondria"},
      {"measurement": "presence in mitochondria by image measurement", "setting": "[1]", "result": "a small amount of dKLA was coupled to the cells"},
      {"measurement": "basal respiration (baseline OCR)", "setting": "[2]", "result": "no change in baseline OCR"},
      {"measurement": "tumor growth", "setting": "[3]; three times, compared to PBS control", "result": "tumor steadily grew"},
      {"measurement": "metastasis to the lung by H&E staining", "setting": "[4]", "result": "tumor cells were widely spread and metastasis occurred"},
      {"measurement": "nodules on the lung surface", "setting": "[4]", "result": "no reduction thereof was observed"},
      {"measurement": "proportion of M2-type tumor-associated F4/80+ CD206+ TAM in CD45+ leukocytes", "setting": "[5]", "result": "about 20%"}
    ]}
  ]
}
